Experimental data taken from the supplement of paper PMC10627819.

Columns and labels:
B. subtilis 168 [1] = test: fitness (endpoint OD595 vs no drug) (fraction); higher = more growth
Outline: (§1)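 Bacterial fitness was scored as optical density at the stationary-phase transition relative to the robust mean of no-drug control wells. Scores are capped at 1. The growth data were OD595 readings every 30 min for 14 h at 37 °C, background-subtracted against the first reading, from 384-well plates inoculated at OD595 0.01 in TSB, LB Lennox or CY.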

S. aureus Newman [2] = test: as above
Outline: as §1

S. aureus DSM 20231 [3] = test: as above
Outline: as §1

S. pneumoniae D39V [4] = test: as above
Outline: as §1

B. subtilis 168 [5] = test: Bliss interaction score (quartile over a dose matrix) (fitness difference); higher = more antagonism (negative = synergy)
Outline: (§2)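 Growth was read as OD595 when cultures entered stationary phase, and each value was divided by the plate's robust no-drug mean and capped at 1. This normalised ratio is the fitness value, and fitness for each single drug came from the combination data. The Bliss score subtracts the expected fitness, taken as the product, from the observed fitness and is given as quartiles across technical, biological and donor/recipient replicates.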

S. aureus Newman [6] = test: as above
Outline: as §2

S. aureus DSM 20231 [7] = test: as above
Outline: as §2

S. pneumoniae D39V [8] = test: as above
Outline: as §2
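Wherever Bliss interaction score (quartile over a dose matrix) is given: first quartile when negative (synergy) and third quartile when positive (antagonism).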
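Wherever fitness (endpoint OD595 vs no drug) is given: OD595 on entry to stationary phase over no-drug wells; at most 1.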

CCC[C@@H]1C[C@@H](C(=O)N[C@@H]([C@H]2O[C@H](SC)[C@H](O)[C@@H](O)[C@H]2O)[C@H](C)Cl)N(C)C1 [Clindamycin] + Cc1cc(NS(=O)(=O)c2ccc(N)cc2)no1 [Sulfamethoxazol]
one replicate
Conditions | fitness
B. subtilis 168 [1], first compound 0.0039 µg/mL, partner 1 µg/mL | ≥ 1
B. subtilis 168 [1], first compound 0.0039 µg/mL, partner 2 µg/mL | ≥ 1
B. subtilis 168 [1], first compound 0.0039 µg/mL, partner 4 µg/mL | ≥ 1
B. subtilis 168 [1], first compound 0.0078 µg/mL, partner 1 µg/mL | 0.884
B. subtilis 168 [1], first compound 0.0078 µg/mL, partner 2 µg/mL | 0.853
B. subtilis 168 [1], first compound 0.0078 µg/mL, partner 4 µg/mL | 0.868
B. subtilis 168 [1], first compound 0.0156 µg/mL, partner 1 µg/mL | 0.866
B. subtilis 168 [1], first compound 0.0156 µg/mL, partner 2 µg/mL | 0.981
B. subtilis 168 [1], first compound 0.0156 µg/mL, partner 4 µg/mL | 0.907
B. subtilis 168 [1], first compound 0.0625 µg/mL, partner 0.5 µg/mL | 0.666
B. subtilis 168 [1], first compound 0.125 µg/mL, partner 0.5 µg/mL | 0.466
B. subtilis 168 [1], first compound 0.25 µg/mL, partner 0.5 µg/mL | 0.363
S. aureus Newman [2], first compound 0.0312 µg/mL, partner 8 µg/mL | 0.896
S. aureus Newman [2], first compound 0.0625 µg/mL, partner 8 µg/mL | 0.934
S. aureus Newman [2], first compound 0.125 µg/mL, partner 8 µg/mL | 0.709
S. pneumoniae D39V [4], first compound 0.015 µg/mL, partner 1 µg/mL | 0.873
S. pneumoniae D39V [4], first compound 0.015 µg/mL, partner 2 µg/mL | 0.914
S. pneumoniae D39V [4], first compound 0.015 µg/mL, partner 4 µg/mL | 0.812
S. pneumoniae D39V [4], first compound 0.03 µg/mL, partner 1 µg/mL | 0.783
S. pneumoniae D39V [4], first compound 0.03 µg/mL, partner 2 µg/mL | 0.777
S. pneumoniae D39V [4], first compound 0.03 µg/mL, partner 4 µg/mL | 0.717
S. pneumoniae D39V [4], first compound 0.06 µg/mL, partner 1 µg/mL | 0.64
S. pneumoniae D39V [4], first compound 0.06 µg/mL, partner 2 µg/mL | 0.69
S. pneumoniae D39V [4], first compound 0.06 µg/mL, partner 4 µg/mL | 0.621

fitness
Conditions | partner 1 µg/mL | partner 2 µg/mL | partner 4 µg/mL
B. subtilis 168 [1], first compound 0.0625 µg/mL | 0.571 | 0.544 | 0.579
B. subtilis 168 [1], first compound 0.125 µg/mL | 0.422 | 0.395 | 0.431
B. subtilis 168 [1], first compound 0.25 µg/mL | 0.33 | 0.321 | 0.332
S. aureus DSM 20231 [3], first compound 0.0625 µg/mL | 0.0971 | 0.0985 | 0.0862
S. aureus DSM 20231 [3], first compound 0.125 µg/mL | 0.0349 | 0.0282 | 0.0345
S. aureus Newman [2], first compound 0.0312 µg/mL | 0.757 | – | –
S. aureus Newman [2], first compound 0.125 µg/mL | 0.149 | – | –
S. pneumoniae D39V [4], first compound 0.0125 µg/mL | 0.687 | 0.711 | 0.739
S. pneumoniae D39V [4], first compound 0.025 µg/mL | 0.462 | 0.443 | 0.45
S. pneumoniae D39V [4], first compound 0.05 µg/mL | 0.206 | 0.191 | 0.219

Conditions | Bliss interaction score
B. subtilis 168 [5] | -0.0677
S. aureus DSM 20231 [7] | -0.0287
S. aureus Newman [6] | 0.0865
S. pneumoniae D39V [8] | -0.0442

O=C(O[C@@H]1Cc2c(O)cc(O)cc2O[C@@H]1c1cc(O)c(O)c(O)c1)c1cc(O)c(O)c(O)c1 [EGCG] + COc1ccc(C[C@H](N)C(=O)N[C@H]2[C@@H](O)[C@H](n3cnc4c(N(C)C)ncnc43)O[C@@H]2CO)cc1 [Puromycin]
fitness
Conditions | first compound 6.25 µg/mL | first compound 12.5 µg/mL | first compound 25 µg/mL | first compound 50 µg/mL
B. subtilis 168 [1], partner 0.39 µg/mL | 0.91 | – | – | –
B. subtilis 168 [1], partner 0.78 µg/mL | 0.953 | – | – | –
B. subtilis 168 [1], partner 1.56 µg/mL | 0.885 | – | – | –
S. aureus DSM 20231 [3], partner 0.39 µg/mL | – | 0.908 | 0.842 | –
S. aureus DSM 20231 [3], partner 0.78 µg/mL | – | 0.888 | 0.812 | 0.845
S. aureus DSM 20231 [3], partner 1.56 µg/mL | – | 0.864 | 0.846 | 0.777
S. aureus Newman [2], partner 0.39 µg/mL | – | 0.802 | 0.779 | 0.657
S. aureus Newman [2], partner 0.78 µg/mL | – | 0.809 | 0.789 | –
S. aureus Newman [2], partner 1.56 µg/mL | – | 0.846 | 0.787 | –
S. pneumoniae D39V [4], partner 1 µg/mL | – | 0.949 | – | 0.965
S. pneumoniae D39V [4], partner 2 µg/mL | – | 0.895 | 0.917 | 0.91
S. pneumoniae D39V [4], partner 4 µg/mL | – | – | 0.384 | –

fitness, S. aureus DSM 20231 [3], one replicate
Conditions | first compound 12.5 µg/mL | first compound 25 µg/mL | first compound 50 µg/mL
partner 3.12 µg/mL | 0.846 | 0.945 | 0.676
partner 6.24 µg/mL | 0.745 | 0.527 | 0.172

Conditions | Bliss interaction score
B. subtilis 168 [5] | -0.0503
S. aureus DSM 20231 [7] | 0.09
S. aureus Newman [6] | 0.0755
S. pneumoniae D39V [8] | 0.0916
